Reference: patent publication USRE49022E1, “Insecticidal compounds” (SYNGENTA PARTICIPATIONS AG, priority 2013, dated 2022)

Legend:
Format in all cases: in vivo
[1] = tested on: Thrips tabaci (Onion Thrips); assay: Thrips tabaci, sunflower leaf disc spray test; conditions: foliar, 168 h, sprayed sunflower leaf discs, mortality after 7 days
[2] = tested on: Spodoptera littoralis (Egyptian Cotton Leaf Worm); assay: Spodoptera littoralis, agar / lettuce root uptake test; conditions: 144 h, mixed with agar, uptake by lettuce roots, mortality 6 days after infestation
Text: Test compounds were applied by pipette into 24 well plates and mixed with agar. Application rate: 12.5 ppm. Lettuce seeds were placed on the agar and the multi well plate is closed by another plate which contains also agar. After 7 days the roots have absorbed the compound and the lettuce has grown into the lid plate. The lettuce leafs were now cut off into the lid plate. Spodoptera eggs were pipetted through a plastic stencil on a humid gel blotting paper and the plate closed with it. The samples are checked for mortality 6 days after infestation.

[3] = tested on: Tetranychus urticae (Two-Spotted Spider Mite); assay: Tetranychus urticae, bean leaf disc spray test; conditions: foliar, 192 h, sprayed bean leaf discs, mite populations of mixed ages, 8 days
Text: Bean leaf discs on agar in 24-well microtiter plates were sprayed with test solutions at an application rate of 200 ppm. After drying, the leaf discs are infested with mite populations of mixed ages. 8 days later, discs were checked for mortality.

[4] = tested on: Plutella xylostella (Diamond Back Moth); assay: Plutella xylostella, artificial diet MTP test; conditions: 144 h, 200 ppm (concentration in well 18 ppm), L2 larvae, 6 days
Protocol: 24-well microtiter plate (MTP) with artificial diet was treated with test solutions at an application rate of 200 ppm (concentration in well 18 ppm) by pipetting. After drying, the MTP's were infested with L2 larvae (7-12 per well). After an incubation period of 6 days, samples were checked for larval mortality and growth regulation. The following compound gave at least 80% mortality of Plutella xylostella: 1, 2, 3, 4, 5, 6, 7, 8, 9, 10, 11, 12, 13, 14, 15, 16, 17, 18, 19, 20, 21, 22, 23, 24, 25, 26, 27, 28, 29, 30, 31, 32, 33, 34, 35, 36, 37, 38, 39, 40, 41, 42, 43, 44, 45, 46, 47, 48, 49, 50.

[5] = tested on: Myzus persicae (Green Peach Aphid); assay: Myzus persicae, sunflower leaf disc spray test; conditions: foliar, 144 h, sprayed sunflower leaf discs, aphid population of mixed ages, mortality after 6 DAT
Protocol: Sunflower leaf discs were placed on agar in a 24-well microtiter plate and sprayed with test solutions at an application rate of 200 ppm. After drying, the leaf discs were infested with an aphid population of mixed ages. After an incubation period of 6 DAT, samples were checked for mortality.

[6] = tested on: Spodoptera littoralis (Egyptian Cotton Leafworm); assay: Spodoptera littoralis, cotton leaf disc spray test; conditions: foliar, 72 h, sprayed cotton leaf discs, L1 larvae, 3 days after treatment
Text: Cotton leaf discs were placed on agar in a 24-well microtiter plate and sprayed with test solutions at an application rate of 200 ppm. After drying, the leaf discs were infested with 5 L1 larvae. The samples were checked for mortality 3 days after treatment (DAT).

[7] = tested on: Myzus persicae (Green Peach Aphid); assay: Myzus persicae, sucrose solution / Parafilm test; conditions: 120 h, mixed with sucrose solution under Parafilm, mortality 5 days after infestation
Text: Test compounds were applied by pipette into 24 well plates and mixed with Sucrose solution. Application rate: 12.5 ppm. The plates were closed with a stretched Parafilm. A plastic stencil with 24 holes is placed onto the plate and infested pea seedlings were placed directly on the Parafilm. The infested plate is closed with a gel blotting paper and another plastic stencil and then turned upside down. 5 days after infestation the samples were checked on mortality.

[8] = tested on: Diabrotica balteata (Corn Root Worm); assay: Diabrotica balteata, artificial diet MTP test; conditions: 120 h, 200 ppm (concentration in well 18 ppm), L2 larvae, larval mortality after 5 days
Protocol: A 24-well microtiter plate (MTP) with artificial diet was treated with test solutions at an application rate of 200 ppm (concentration in well 18 ppm) by pipetting. After drying, the MTP's were infested with L2 larvae (6-10 per well). After an incubation period of 5 days, samples were checked for larval mortality The following compound gave at least 80% control of Diabrotica balteata: 1, 2, 3, 4, 5, 6, 7, 8, 9, 10, 11, 12, 13, 14, 15, 16, 17, 18, 19, 20, 21, 22, 23, 24, 25, 26, 27, 28, 29, 30, 31, 32, 33, 34, 35, 36, 37, 38, 39, 40, 41, 42, 43, 44, 45, 46, 47, 48, 49, 50, 51.

O=C(Nc1cccc(C(=O)Nc2c(Br)cc(C(F)(C(F)(F)F)C(F)(F)Cl)cc2OC(F)F)c1F)c1cccnc1 (centres unmarked) [Compound 12]
≥ 80%: pest or weed control at 200 ppm [1] | pest or weed control at 12.5 ppm [2] | mortality at 200 ppm [3] | mortality at 200 ppm [4] | pest or weed control at 200 ppm [5] | mortality at 200 ppm [6] | pest or weed control at 12.5 ppm [7] | pest or weed control at 200 ppm [8]

O=C(Nc1cccc(C(=O)Nc2c(Br)cc(C(F)(C(F)(F)F)C(F)(F)Cl)cc2OC(F)F)c1F)c1cc[n+]([O-])cc1 (centres unmarked) [Compound 23]
≥ 80%: pest or weed control at 200 ppm [1] | pest or weed control at 12.5 ppm [2] | mortality at 200 ppm [3] | mortality at 200 ppm [4] | pest or weed control at 200 ppm [5] | mortality at 200 ppm [6] | pest or weed control at 12.5 ppm [7] | pest or weed control at 200 ppm [8]

N#Cc1ccc(C(=O)Nc2cccc(C(=O)Nc3c(Br)cc(C(F)(C(F)(F)F)C(F)(F)Cl)cc3OC(F)F)c2F)cc1 (centres unmarked) [Compound 13]
≥ 80%: pest or weed control at 200 ppm [1] | pest or weed control at 12.5 ppm [2] | mortality at 200 ppm [3] | mortality at 200 ppm [4] | pest or weed control at 200 ppm [5] | mortality at 200 ppm [6] | pest or weed control at 12.5 ppm [7] | pest or weed control at 200 ppm [8]

CCN(C(=O)c1ccc(C#N)cc1)c1cccc(C(=O)Nc2c(Br)cc(C(F)(C(F)(F)F)C(F)(F)Br)cc2OC(F)F)c1F (centres unmarked) [Compound 8]
≥ 80%: pest or weed control at 200 ppm [1] | pest or weed control at 12.5 ppm [2] | mortality at 200 ppm [3] | mortality at 200 ppm [4] | pest or weed control at 200 ppm [5] | mortality at 200 ppm [6] | pest or weed control at 12.5 ppm [7] | pest or weed control at 200 ppm [8]

CCN(C(=O)c1cc[n+]([O-])cc1)c1cccc(C(=O)Nc2c(Br)cc(C(F)(C(F)(F)F)C(F)(F)Cl)cc2OC(F)F)c1OC (centres unmarked) [Compound 44, N-[3-[[2-bromo-4-[1-[chloro(difluoro)methyl]-1,2,2,2-tetrafluoro-ethyl]-6-(difluoromethoxy)phenyl]carbamoyl]-2-methoxy-phenyl]-N-ethyl-1-oxido-pyridin-1-ium-4-carboxamide]
≥ 80%: pest or weed control at 200 ppm [1] | pest or weed control at 12.5 ppm [2] | mortality at 200 ppm [3] | mortality at 200 ppm [4] | pest or weed control at 200 ppm [5] | mortality at 200 ppm [6] | pest or weed control at 12.5 ppm [7] | pest or weed control at 200 ppm [8]

CCN(C(=O)c1ccc[n+]([O-])c1)c1cccc(C(=O)Nc2c(Br)cc(C(F)(C(F)(F)F)C(F)(F)Cl)cc2OC(F)F)c1F (centres unmarked) [Compound 47]
≥ 80%: pest or weed control at 200 ppm [1] | pest or weed control at 12.5 ppm [2] | mortality at 200 ppm [3] | mortality at 200 ppm [4] | pest or weed control at 200 ppm [5] | mortality at 200 ppm [6] | pest or weed control at 12.5 ppm [7] | pest or weed control at 200 ppm [8]

CCN(C(=O)c1ccncc1)c1cccc(C(=O)Nc2c(Br)cc(C(F)(C(F)(F)F)C(F)(F)Cl)cc2OC(F)F)c1OC (centres unmarked) [Compound 36, N-[3-[[2-bromo-4-[1-[chloro(difluoro)methyl]-1,2,2,2-tetrafluoro-ethyl]-6-(difluoromethoxy)phenyl]carbamoyl]-2-methoxy-phenyl]-N-ethyl-pyridine-4-carboxamide]
≥ 80%: pest or weed control at 200 ppm [1] | pest or weed control at 12.5 ppm [2] | mortality at 200 ppm [3] | mortality at 200 ppm [4] | pest or weed control at 200 ppm [5] | mortality at 200 ppm [6] | pest or weed control at 12.5 ppm [7] | pest or weed control at 200 ppm [8]

CCc1cc(C(F)(C(F)(F)F)C(F)(F)Cl)cc(Br)c1NC(=O)c1cccc(NC(=O)c2cccnc2)c1OC (centres unmarked) [Compound 21]
≥ 80%: pest or weed control at 200 ppm [1] | pest or weed control at 12.5 ppm [2] | mortality at 200 ppm [3] | mortality at 200 ppm [4] | pest or weed control at 200 ppm [5] | mortality at 200 ppm [6] | pest or weed control at 12.5 ppm [7] | pest or weed control at 200 ppm [8]

CCN(C(=O)c1ccc[n+]([O-])c1)c1cccc(C(=O)Nc2c(Br)cc(C(F)(C(F)(F)F)C(F)(F)Cl)cc2OC(F)F)c1OC (centres unmarked) [Compound 48]
≥ 80%: pest or weed control at 200 ppm [1] | pest or weed control at 12.5 ppm [2] | mortality at 200 ppm [3] | mortality at 200 ppm [4] | pest or weed control at 200 ppm [5] | mortality at 200 ppm [6] | pest or weed control at 12.5 ppm [7] | pest or weed control at 200 ppm [8]

CCc1cc(C(F)(C(F)(F)F)C(F)(F)Cl)cc(Br)c1NC(=O)c1cccc(N(CC)C(=O)c2cccnc2)c1F (centres unmarked) [Compound 41]
≥ 80%: pest or weed control at 200 ppm [1] | pest or weed control at 12.5 ppm [2] | mortality at 200 ppm [3] | mortality at 200 ppm [4] | pest or weed control at 200 ppm [5] | mortality at 200 ppm [6] | pest or weed control at 12.5 ppm [7] | pest or weed control at 200 ppm [8]

CCN(C(=O)c1cccnc1)c1cccc(C(=O)Nc2c(Br)cc(C(F)(C(F)(F)F)C(F)(F)Cl)cc2OC(F)F)c1OC (centres unmarked) [Compound 40]
≥ 80%: pest or weed control at 200 ppm [1] | pest or weed control at 12.5 ppm [2] | mortality at 200 ppm [3] | mortality at 200 ppm [4] | pest or weed control at 200 ppm [5] | mortality at 200 ppm [6] | pest or weed control at 12.5 ppm [7] | pest or weed control at 200 ppm [8]

O=C(Nc1cccc(C(=O)Nc2c(Br)cc(C(F)(C(F)(F)F)C(F)(F)Cl)cc2OC(F)F)c1F)c1ccc[n+]([O-])c1 (centres unmarked) [Compound 24]
≥ 80%: pest or weed control at 200 ppm [1] | pest or weed control at 12.5 ppm [2] | mortality at 200 ppm [3] | mortality at 200 ppm [4] | pest or weed control at 200 ppm [5] | mortality at 200 ppm [6] | pest or weed control at 12.5 ppm [7] | pest or weed control at 200 ppm [8]

CCN(C(=O)c1ccc(C#N)cc1)c1cccc(C(=O)Nc2c(Br)cc(C(F)(C(F)(F)F)C(F)(F)Cl)cc2OC(F)F)c1OC (centres unmarked) [Compound 32]
≥ 80%: pest or weed control at 200 ppm [1] | pest or weed control at 12.5 ppm [2] | mortality at 200 ppm [3] | mortality at 200 ppm [4] | pest or weed control at 200 ppm [5] | mortality at 200 ppm [6] | pest or weed control at 12.5 ppm [7] | pest or weed control at 200 ppm [8]

COc1c(NC(=O)c2ccncc2)cccc1C(=O)Nc1c(Cl)cc(C(F)(C(F)(F)F)C(F)(F)Br)cc1Br (centres unmarked) [Compound 3, N-[3-[[2-bromo-4-[1-[bromo(difluoro)methyl]-1,2,2,2-tetrafluoro-ethyl]-6-chloro-phenyl]carbamoyl]-2-methoxy-phenyl]pyridine-4-carboxamide]
≥ 80%: pest or weed control at 200 ppm [1] | pest or weed control at 12.5 ppm [2] | mortality at 200 ppm [3] | mortality at 200 ppm [4] | pest or weed control at 200 ppm [5] | mortality at 200 ppm [6] | pest or weed control at 12.5 ppm [7] | pest or weed control at 200 ppm [8]

COc1c(NC(=O)c2ccncc2)cccc1C(=O)Nc1c(Br)cc(C(F)(C(F)(F)F)C(F)(F)Cl)cc1OC(F)F (centres unmarked) [Compound 14]
≥ 80%: pest or weed control at 200 ppm [1] | pest or weed control at 12.5 ppm [2] | mortality at 200 ppm [3] | mortality at 200 ppm [4] | pest or weed control at 200 ppm [5] | mortality at 200 ppm [6] | pest or weed control at 12.5 ppm [7] | pest or weed control at 200 ppm [8]

O=C(Nc1cccc(C(=O)Nc2c(Br)cc(C(F)(C(F)(F)F)C(F)(F)Cl)cc2OC(F)F)c1F)c1ccncc1 (centres unmarked) [Compound 11]
≥ 80%: pest or weed control at 200 ppm [1] | pest or weed control at 12.5 ppm [2] | mortality at 200 ppm [3] | mortality at 200 ppm [4] | pest or weed control at 200 ppm [5] | mortality at 200 ppm [6] | pest or weed control at 12.5 ppm [7] | pest or weed control at 200 ppm [8]
